Experiment: Solid-state stability
Assay type: physicochemical
Description: Solid-state stability of free base Form II (Lot#1) was conducted at 60° C. (capped) and 40° C./75% RH (open) for 7 days. The stability sample was dissolved in diluent to prepare solution at ˜0.5 mg/mL for HPLC purity analysis. Solid samples were analyzed by XRPD to check the crystalline form. […] (capped) and 40° C./75% RH (open) after 7 days.

SMILES: CNC(=O)c1ccc(N2CCN(Cc3cnc4cc(C5CC5)c(=O)[nH]c4c3)CC2)cn1 [Freebase Form II, 5-(4-((7-cyclopropyl-6-oxo-5,6-dihydro-1,5-naphthyridin-3-yl)methyl)piperazin-1-yl)-N-methylpicolinamide]
- Purity (area %) @7 D 40° C./75% RH (40° C./75% RH (open), 7 days): 99.26 area %
- XRPD @7 D 40° C./75% RH (40° C./75% RH (open), 7 days): Unchanged
- solid-state stability (60° C. (capped) and 40° C./75% RH (open), after 7 days): physically and chemically stable
- Purity (area %) @7 D 60° C. (60° C. (capped), 7 days): 99.25 area %
- XRPD @7 D 60° C. (60° C. (capped), 7 days): Unchanged
- Purity (area %) Initial (initial): 99.26 area %

From US20240174669A1, “CRYSTALLINE FORMS OF A PARP1 INHIBITOR” (XinThera, Inc., priority 2022, published 2024)
